These compounds were tested against T1, recombinant human GST-SYK (Homo sapiens, UniProt P43405) (assay: Homogeneous Time-Resolved Fluorescence (HTRF) assay for the recombinant human Syk enzyme). Conditions: HTRF assay, recombinant human GST-SYK; IC50 given as class symbols; read-out: rhSYK Activity.
T1 construct: purchased Carna Biosciences 08-176
Type: biochemical
How it was run: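 Phosphorylation of a biotinylated Syk substrate peptide (250 nM) was run for 45 min at room temperature with 25 μM ATP and 5 mM Mg. It followed a 10-min preincubation of GST-hSYK ([…]) with compound in 15 mM Tris-HCl pH 7.5, 2 mM DTT. Product was detected by time-resolved fluorescence using a europium anti-phosphotyrosine antibody plus SA-APC in EDTA-containing quench buffer.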
With `Cc1cc(Nc2nccc(C(F)(F)F)n2)cc(-c2ccc(C3(O)CCNC(=O)CC3)nc2)c1` (centres unmarked) [Example 11.1, 5-Hydroxy-5-[5-(3-methyl-5-{[4-(trifluoromethyl)pyrimidin-2-yl]amino}phenyl)pyridin-2-yl]azepan-2-one] the IC50 was < 0.1 µM.
For `CCOC(=O)CCc1cncc(-c2cc(C)cc(Nc3nccc(C4CC4)n3)c2)c1` [Example 2.100], the IC50 was < 0.1 µM.
In the case of `CCOC(=O)C1(C)CCC(O)(c2ccc(-c3cc(C)cc(Nc4nccc(C(F)(F)F)n4)c3)cn2)CC1` (centres unmarked) [Example 9.44, ethyl 4-hydroxy-1-methyl-4-[5-(3-methyl-5-{[4-(trifluoromethyl)pyrimidin-2-yl]amino}phenyl)pyridin-2-yl]cyclohexanecarboxylate], the IC50 is reported as 0.1 to 1 µM.
For `Cn1c(-c2cccc(Nc3nccc(C(F)(F)F)n3)c2)cccc1=O` [Example 5.3, 1-methyl-6-(3-{[4-(trifluoromethyl)pyrimidin-2-yl]amino}phenyl)pyridin-2(1H)-one], the IC50 was 0.1 to 1 µM.
`Cc1cc(Nc2nccc(C(F)(F)F)n2)cc(-c2ccnc(N3CCN(C=O)CC3)c2)c1` [Example 15.24, 4-[4-(3-methyl-5-{[4-(trifluoromethyl)pyrimidin-2-yl]amino}phenyl)pyridin-2-yl]piperazine-1-carbaldehyde] was tested, and the IC50 was < 0.1 µM.
With `COCC(O)CNC(=O)c1ccc(-c2cc(C)cc(Nc3nccc(C(F)(F)F)n3)c2)cn1` (centres unmarked) [Example 16.45, N-(2-hydroxy-3-methoxypropyl)-5-(3-methyl-5-{[4-(trifluoromethyl)pyrimidin-2-yl]amino}phenyl)pyridine-2-carboxamide] the IC50 was < 0.1 µM.
In the case of `Cc1cc(Nc2nccc(C(F)(F)F)n2)cc(-c2ccc(N)nc2)c1` [Example 4.2, N-[3-(6-aminopyridin-3-yl)-5-methylphenyl]-4-(trifluoromethyl)pyrimidin-2-amine], the IC50 is reported as < 0.1 µM.
`Cc1cc(Nc2nccc(C(F)(F)F)n2)cc(-c2cncc(F)c2)c1` [Example 4.3, N-[3-(5-fluoropyridin-3-yl)-5-methylphenyl]-4-(trifluoromethyl)pyrimidin-2-amine] was tested, and the IC50 was < 0.1 µM.
For `Cc1cc(Nc2nccc(C(F)(F)F)n2)cc(-c2cncc([C@]3(O)CC[C@@H](C(=O)O)CC3)c2)c1` [Example 9.69, cis-4-hydroxy-4-[5-(3-methyl-5-{[4-(trifluoromethyl)pyrimidin-2-yl]amino}phenyl)pyridin-3-yl]cyclohexanecarboxylic acid], the IC50 was < 0.1 µM.
Compound `CNC(=O)C1CCN(c2ccc(-c3cc(C)cc(Nc4nccc(C(F)(F)F)n4)c3)cn2)CC1` [Example 7.42, N-methyl-1-[5-(3-methyl-5-{[4-(trifluoromethyl)pyrimidin-2-yl]amino}phenyl)pyridin-2-yl]piperidine-4-carboxamide] has an IC50 of 0.1 to 1 µM.
With `Cc1cc(Nc2nccc(C(F)(F)F)n2)cc(-c2ccc(N3CC(O)C3)nc2)c1` [Example 7.36, 1-[5-(3-methyl-5-{[4-(trifluoromethyl)pyrimidin-2-yl]amino}phenyl)pyridin-2-yl]azetidin-3-ol] the IC50 was < 0.1 µM.
In the case of `CC1(C(=O)O)CCC(O)(c2ccc(-c3cc(Nc4nccc(C(F)(F)F)n4)cc(C(F)F)c3)cn2)CC1` (stereo not drawn) [Example 9.12, cis-4-{5-[3-(difluoromethyl)-5-{[4-(trifluoromethyl)pyrimidin-2-yl]amino}phenyl]pyridin-2-yl}-4-hydroxy-1-methylcyclohexanecarboxylic acid], the IC50 is reported as < 0.1 µM.
With `Cc1cc(Nc2nccc(C(F)(F)F)n2)cc(-c2ccc(N3CCC3C(=O)O)nc2)c1` (centres unmarked) [Example 7.82, 1-[5-(3-methyl-5-{[4-(trifluoromethyl)pyrimidin-2-yl]amino}phenyl)pyridin-2-yl]azetidine-2-carboxylic acid] the IC50 was < 0.1 µM.
`Cc1cc(Nc2nccc(C(F)(F)F)n2)cc(-c2ccc(N(C)CC(N)=O)nc2)c1` [Example 7.153, N~2~-methyl-N~2~-[5-(3-methyl-5-{[4-(trifluoromethyl)pyrimidin-2-yl]amino}phenyl)pyridin-2-yl]glycinamide] was tested, and the IC50 was < 0.1 µM.

Source: US9376418B2, “Substituted pyridine spleen tyrosine kinase (SYK) inhibitors” (Merck Sharp & Dohme Corp., priority 2012, dated 2016)
